# Assay results taken from US12543738B2 (Bayer Aktiengesellschaft, priority 2020, dated 2026).
# How the values were obtained:
# [1] = Measurement of LogP values by HPLC on reversed phase columns (EEC directive 79/831 Annex V.A8); assay type: physicochemical; details: method [a]: LC-UV, acidic range, 0.1% formic acid in water and acetonitrile; compounds of formula (I-1), Table 1
# Method: Calibration was done with straight-chain alkan2-ones (with 3 to 16 carbon atoms) with known LogP values (measurement of LogP values using retention times with linear interpolation between successive alkanones). Lambda-max-values were determined using UV-spectra from 200 nm to 400 nm and the peak values of the chromatographic signals
# Botrytis cinerea = experiment: In vivo preventive test on Botrytis cinerea (grey mould); details: 500 ppm of active ingredient, preventive spray on gherkin or cabbage, evaluated 4 to 5 days after inoculation, read-out: efficacy
# Method: (§1) The active ingredients were made soluble and homogenized in a mixture of Dimethyl sulfoxide/Acetone//Tween® 80 and then diluted in water to the desired concentration. The young plants of gherkin or cabbage were treated by spraying the active ingredient prepared as described above. Control plants were treated only with an aqueous solution of Acetone/Dimethyl sulfoxide/Tween® 80. After 24 hours, the plants were contaminated by spraying the leaves with an aqueous suspension of Botrytis cinerea spores.
# Pyrenophora teres = experiment: In vivo preventive test on Pyrenophora teres (net blotch on barley); details: 240 h, 500 ppm of active ingredient, preventive spray on barley, evaluated 10 days after inoculation, read-out: efficacy
# Method: as §1, with “barley” for “gherkin or cabbage”, “Pyrenophora teres” for “Botrytis cinerea”
# Sphaerotheca fuliginea = experiment: In vivo preventive test on Sphaerotheca fuliginea (powdery mildew on cucurbits); details: Podosphaera fuliginea, 192 h; 500 ppm of active ingredient; preventive spray on gherkin; evaluated 8 days after inoculation; read-out: efficacy
# Method: as §1, with “gherkin” for “gherkin or cabbage”, “Sphaerotheca fuliginea” for “Botrytis cinerea”
# [2] = system: Colletotrichum lindemuthianum; experiment: In vivo preventive test on Colletotrichum lindemuthianum (leaf spot on bean); details: 168 h, 500 ppm of active ingredient, preventive spray on bean, evaluated 7 days after inoculation, read-out: efficacy
# Method: as §1, with “bean” for “gherkin or cabbage”, “Colletotrichum lindemuthianum” for “Botrytis cinerea”
# Alternaria alternata = Alternaria alternata in vitro cell test; assay type: cell-based; details: 120 h, 20 ppm of active ingredient, liquid culture, 5 days incubation, read-out: efficacy (inhibition of fungal growth)
# Method: (§2) • Solvent: DMSO • Culture medium: 14.6 g anhydrous D-glucose (VWR), 7.1 g Mycological Peptone (Oxoid), 1.4 g granulated Yeast Extract (Merck), QSP 1 liter • Inoculum: spores suspension Fungicides were solubilized in DMSO and the solution used to prepare the required range of concentrations. […] A spore suspension of A. alternata was prepared and diluted to the desired spore density. Fungicides were evaluated for their ability to inhibit spore germination and mycelium growth in liquid culture assay. The compounds were added in the desired concentration to the culture medium with spores. After 5 days incubation, fungi-toxicity of compounds was determined by spectrometric measurement of mycelium growth. Inhibition of fungal growth was determined by comparing the absorbance values in wells containing the fungicides with the absorbance in control wells without fungicides.
# Fusarium culmorum = Fusarium culmorum in vitro cell test; assay type: cell-based; details: 96 h, 20 ppm of active ingredient, liquid culture, 4 days incubation, read-out: efficacy (inhibition of fungal growth)
# Method: • Solvent: DMSO • Culture medium: 14.6 g anhydrous D-glucose (VWR), 7.1 g Mycological Peptone (Oxoid), 1.4 g granulated Yeast Extract (Merck), QSP 1 liter • Inoculum: spore suspension • Fungicides were solubilized in DMSO and the solution used to prepare the required range of concentrations. The final concentration of DMSO used in the assay was ≤1%.
# A spore suspension of F. culmorum was prepared and diluted to the desired spore density.
# Fungicides were evaluated for their ability to inhibit spore germination and mycelium growth in liquid culture assay. The compounds were added in the desired concentration to the culture medium with spores. After 4 days incubation, fungi-toxicity of compounds was determined by spectrometric measurement of mycelium growth. Inhibition of fungal growth was determined by comparing the absorbance values in wells containing the fungicides with the absorbance in control wells without fungicides.
# Pyricularia Oryzae = experiment: microbe, parasite or virus in culture; assay type: cell-based; details: 120 h, read-out: efficacy (inhibition of fungal growth)
# [3] = system: Colletotrichum lindemuthianum; experiment: Colletotrichum lindemuthianum in vitro cell test; assay type: cell-based; details: 144 h, 20 ppm of active ingredient, liquid culture, 6 days incubation, read-out: efficacy (inhibition of fungal growth)
# Method: as §2, with “of C. lindemuthianum” for “of A. alternata”, “inhibit spores” for “inhibit spore”, “After 6” for “After 5”
# Septoria tritici = Septoria tritici in vitro cell test; assay type: cell-based; details: Zymoseptoria tritici, 168 h; 20 ppm of active ingredient; liquid culture, 7 days incubation; read-out: efficacy (inhibition of fungal growth)
# Method: • Solvent: DMSO • Culture medium: 1 g KH2PO4 (VWR), 1 g K2HPO4 (VWR), 0.5 g Urea (VWR), 3 g KNO3 (Prolabo), 10 g saccharose (VWR), 0.5 g MgSO4, 7H2O (Sigma), 0.07 g CaCl2, 2H2O (Prolabo), 0.2 mg MnSO4, H2O (Sigma), 0.6 mg CuSO4, 5H2O (Sigma), 7.9 mg ZnSO4, 7H2O (Sigma), 0.1 mg H3BO3 (Merck), 0.14 mg NaMoO4, 2H2O (Sigma), 2 mg thiamine (Sigma), 0.1 mg biotine (VWR), 4 mg FeSO4, 7H2O (Sigma), QSP 1 liter • Inoculum: spore suspension Fungicides were solubilized in DMSO and the solution used to prepare the required range of concentrations. […] A spore suspension of S. tritici was prepared and diluted to the desired spore density. Fungicides were evaluated for their ability to inhibit spore germination and mycelium growth in liquid culture assay. The compounds were added in the desired concentration to the culture medium with spores. […] Inhibition of fungal growth was determined by comparing the absorbance values in wells containing the fungicides with the absorbance in control wells without fungicides.
# Alternaria brassicae = experiment: In vivo preventive test on Alternaria brassicae (leaf spot on radish or cabbage); details: 144 h, 500 ppm of active ingredient, preventive spray on radish or cabbage, evaluated 6 days after inoculation, read-out: efficacy
# Method: as §1, with “radish” for “gherkin”, “Alternaria brassicae” for “Botrytis cinerea”
smiles,measurement,setting,value
"Cc1cc(C2=NOCC(Cc3ccc(Cl)cc3Cl)N2)c(Oc2cccc(C)c2F)nn1 (racemic) [Compound I-007, (5RS)-5-(2,4-dichlorobenzyl)-3-[3-(2-fluoro-3-methylphenoxy)-6-methylpyridazin-4-yl]-5,6-dihydro-4H-1,2,4-oxadiazine]",chromatographic logP,[1],3.91
same,pest or weed control at 500 ppm,Botrytis cinerea,90 to 100%
same,pest or weed control at 500 ppm,Pyrenophora teres,90 to 100%
same,pest or weed control at 500 ppm,Sphaerotheca fuliginea,90 to 100%
same,pest or weed control at 500 ppm,[2],90 to 100%
same,inhibition at 20 ppm,Alternaria alternata,90 to 100%
same,inhibition at 20 ppm,Fusarium culmorum,90 to 100%
same,inhibition at 20 ppm,Pyricularia Oryzae,90 to 100%
same,inhibition at 20 ppm,[3],90 to 100%
same,inhibition at 20 ppm,Septoria tritici,90 to 100%
same,pest or weed control at 500 ppm,Alternaria brassicae,90 to 100%
"Cc1ccc(CC2CON=C(c3cc(C)nnc3Oc3cccc(Cl)c3)N2)c(C)c1 (racemic) [Compound I-002, (5RS)-3-[3-(3-chlorophenoxy)-6-methylpyridazin-4-yl]-5-(2,4-dimethylbenzyl)-5,6-dihydro-4H-1,2,4-oxadiazine]",chromatographic logP,[1],3.77
same,pest or weed control at 500 ppm,Botrytis cinerea,90 to 100%
same,pest or weed control at 500 ppm,Pyrenophora teres,90 to 100%
same,pest or weed control at 500 ppm,Sphaerotheca fuliginea,90 to 100%
same,pest or weed control at 500 ppm,[2],90 to 100%
same,inhibition at 20 ppm,Alternaria alternata,90 to 100%
same,inhibition at 20 ppm,Fusarium culmorum,90 to 100%
same,inhibition at 20 ppm,Pyricularia Oryzae,90 to 100%
same,inhibition at 20 ppm,[3],90 to 100%
same,inhibition at 20 ppm,Septoria tritici,90 to 100%
same,pest or weed control at 500 ppm,Alternaria brassicae,90 to 100%
"Cc1cc(C)cc(CC2CON=C(c3cc(C)nnc3Oc3cccc(Cl)c3F)N2)c1 (racemic) [Compound I-010, (5RS)-3-[3-(3-chloro-2-fluorophenoxy)-6-methylpyridazin-4-yl]-5-(3,5-dimethylbenzyl)-5,6-dihydro-4H-1,2,4-oxadiazine]",chromatographic logP,[1],4.01
same,pest or weed control at 500 ppm,Botrytis cinerea,90 to 100%
same,pest or weed control at 500 ppm,Pyrenophora teres,90 to 100%
same,pest or weed control at 500 ppm,Sphaerotheca fuliginea,90 to 100%
same,pest or weed control at 500 ppm,[2],90 to 100%
same,inhibition at 20 ppm,Alternaria alternata,90 to 100%
same,inhibition at 20 ppm,Fusarium culmorum,90 to 100%
same,inhibition at 20 ppm,Pyricularia Oryzae,90 to 100%
same,inhibition at 20 ppm,[3],90 to 100%
same,inhibition at 20 ppm,Septoria tritici,90 to 100%
same,pest or weed control at 500 ppm,Alternaria brassicae,90 to 100%
"Cc1ccc(C)c(CC2CON=C(c3cc(C)nnc3Oc3cccc(Cl)c3F)N2)c1 (racemic) [Compound I-012, (5RS)-3-[3-(3-chloro-2-fluorophenoxy)-6-methylpyridazin-4-yl]-5-(2,5-dimethylbenzyl)-5,6-dihydro-4H-1,2,4-oxadiazine]",chromatographic logP,[1],3.8
same,pest or weed control at 500 ppm,Botrytis cinerea,90 to 100%
same,pest or weed control at 500 ppm,Pyrenophora teres,90 to 100%
same,pest or weed control at 500 ppm,Sphaerotheca fuliginea,90 to 100%
same,pest or weed control at 500 ppm,[2],90 to 100%
same,inhibition at 20 ppm,Alternaria alternata,90 to 100%
same,inhibition at 20 ppm,Fusarium culmorum,90 to 100%
same,inhibition at 20 ppm,Pyricularia Oryzae,90 to 100%
same,inhibition at 20 ppm,[3],90 to 100%
same,inhibition at 20 ppm,Septoria tritici,90 to 100%
same,pest or weed control at 500 ppm,Alternaria brassicae,90 to 100%
"Cc1ccc(C)c(CC2CON=C(c3cc(C)nnc3Oc3cccc(Cl)c3)N2)c1 (racemic) [Compound I-011, (5RS)-3-[3-(3-chlorophenoxy)-6-methylpyridazin-4-yl]-5-(2,5-dimethylbenzyl)-5,6-dihydro-4H-1,2,4-oxadiazine]",chromatographic logP,[1],3.7
same,pest or weed control at 500 ppm,Botrytis cinerea,90 to 100%
same,pest or weed control at 500 ppm,Pyrenophora teres,90 to 100%
same,pest or weed control at 500 ppm,Sphaerotheca fuliginea,90 to 100%
same,pest or weed control at 500 ppm,[2],90 to 100%
same,inhibition at 20 ppm,Alternaria alternata,90 to 100%
same,inhibition at 20 ppm,Fusarium culmorum,70 to 79%
same,inhibition at 20 ppm,Pyricularia Oryzae,90 to 100%
same,inhibition at 20 ppm,[3],90 to 100%
same,inhibition at 20 ppm,Septoria tritici,90 to 100%
same,pest or weed control at 500 ppm,Alternaria brassicae,90 to 100%
"Cc1ccc(CC2CON=C(c3cc(C)nnc3Oc3cccc(C)c3F)N2)c(Cl)c1 (racemic) [Compound I-003, (5RS)-5-(2-chloro-4-methylbenzyl)-3-[3-(2-fluoro-3-methylphenoxy)-6-methylpyridazin-4-yl]-5,6-dihydro-4H-1,2,4-oxadiazine]",chromatographic logP,[1],3.78
same,pest or weed control at 500 ppm,Botrytis cinerea,90 to 100%
same,pest or weed control at 500 ppm,Pyrenophora teres,90 to 100%
same,pest or weed control at 500 ppm,Sphaerotheca fuliginea,90 to 100%
same,pest or weed control at 500 ppm,[2],90 to 100%
same,inhibition at 20 ppm,Alternaria alternata,90 to 100%
same,inhibition at 20 ppm,Fusarium culmorum,90 to 100%
same,inhibition at 20 ppm,Pyricularia Oryzae,90 to 100%
same,inhibition at 20 ppm,[3],90 to 100%
same,inhibition at 20 ppm,Septoria tritici,90 to 100%
same,pest or weed control at 500 ppm,Alternaria brassicae,90 to 100%
"C[C@@H](F)c1cc(C2=NOC[C@@H](Cc3ccc(Cl)cc3Cl)N2)c(Oc2cccc(C3CC3)c2F)nn1 (racemic) [Compound I-018, (5RS)-3-{3-(3-cyclopropyl-2-fluorophenoxy)-6-[(1RS)-1-fluoroethyl]pyridazin-4-yl}-5-(2,4-dichlorobenzyl)-5,6-dihydro-4H-1,2,4-oxadiazine]",chromatographic logP,[1],4.74
same,pest or weed control at 500 ppm,Botrytis cinerea,90 to 100%
same,pest or weed control at 500 ppm,Pyrenophora teres,90 to 100%
same,pest or weed control at 500 ppm,Sphaerotheca fuliginea,90 to 100%
same,pest or weed control at 500 ppm,[2],90 to 100%
same,inhibition at 20 ppm,Alternaria alternata,90 to 100%
same,inhibition at 20 ppm,Fusarium culmorum,90 to 100%
same,inhibition at 20 ppm,Pyricularia Oryzae,90 to 100%
same,inhibition at 20 ppm,[3],90 to 100%
same,inhibition at 20 ppm,Septoria tritici,90 to 100%
same,pest or weed control at 500 ppm,Alternaria brassicae,90 to 100%
